# In patent US6784137B2, “6-aryl-4-aminopicolinates and their use as herbicides” (Dow AgroSciences LLC, priority 2001, dated 2004):
row,Compound,melting point
1,"COC(=O)c1nc(-c2ccc3c(c2)CCC3)cc(N)c1Cl [Compound 75, Methyl 4-amino-3-chloro-6-(5-indanyl)pyridine-2-carboxylate]",165 to 166 °C
2,"COC(=O)c1nc(-c2ccc3c(c2)CCO3)cc(N)c1Cl [Compound 77, Methyl 4-amino-3-chloro-6-(2,3-dihydro-5-benzofuranyl)pyridine-2-carboxylate]",143 °C
3,"COC(=O)c1nc(-c2cc(Cl)c(C)cc2F)cc(NC(C)=O)c1Cl [Compound 78, Methyl 4-acetamido-3-chloro-6-(5-chloro-2-fluoro-4-methylphenyl)pyridine-2-carboxylate]",187 to 195 °C
4,"COC(=O)c1nc(-c2cc(Cl)c(C)cc2F)cc(N)c1Cl [Compound 79, Methyl 4-amino-3-chloro-6-(5-chloro-2-fluoro-4-methylphenyl)pyridine-2-carboxylate]",108 to 110 °C
5,"COC(=O)c1nc(-c2ccc(OC)c(C)c2)cc(N)c1Cl [Compound 80, Methyl 4-amino-3-chloro-6-(4-methoxy-3-methylphenyl)pyridine-2-carboxylate]",158 °C
6,"COC(=O)c1nc(-c2cc(OC)ccc2OC)cc(NC(C)=O)c1Cl [Compound 81, Methyl 4-acetamido-3-chloro-6-(2,5-dimethoxyphenyl)pyridine-2-carboxylate]",124 to 125 °C
7,"COC(=O)c1nc(-c2ccc(C)cc2)cc(NC(C)=O)c1Cl [Compound 83, Methyl 4-acetamido-3-chloro-6-(4-methylphenyl)pyridine-2-carboxylate]",156 °C
8,"COC(=O)c1nc(-c2cnn(C)c2)cc(NC(C)=O)c1Cl [Compound 87, Methyl 4-acetamido-3-chloro-6-(1-methyl-1H-pyrazol-4-yl)pyridine-2-carboxylate]",177 to 178 °C
9,"COC(=O)c1nc(-c2cc3ccccc3o2)cc(N)c1Cl [Compound 96, Methyl 4-amino-3-chloro-6-(2-benzofuranyl)pyridine-2-carboxylate]",182 to 183 °C
10,"COC(=O)c1nc(-c2cc3ccccc3s2)cc(NC(C)=O)c1Cl [Compound 97, Methyl 4-acetamido-3-chloro-6-(2-benzothienyl)pyridine-2-carboxylate]",184 to 185 °C
11,"COC(=O)c1nc(-c2c(C)noc2C)cc(N)c1Cl [Compound 100, Methyl 4-amino-3-chloro-6-(3,5-dimethyl-4-isoxazolyl)pyridine-2-carboxylate]",143 °C
12,"COC(=O)c1nc(-c2ccsc2)cc(NC(C)=O)c1Cl [Compound 101, Methyl 4-acetamido-3-chloro-6-(3-thienyl)pyridine-2-carboxylate]",133 °C
13,"COC(=O)c1nc(-c2cccnc2)cc(N)c1Cl [Compound 102, Methyl 4-amino-3-chloro-6-(3-pyridyl)pyridine-2-carboxylate]",144 to 146 °C
14,"COC(=O)c1nc(-c2nccs2)cc(NC(C)=O)c1Cl [Compound 103, Methyl 4-acetamido-3-chloro-6-(2-thiazolyl)pyridine-2-carboxylate]",187 to 188 °C
15,"COC(=O)c1nc(-c2ccco2)c(Cl)c(N)c1Cl [Compound 104, Methyl 4-amino-3,5-dichloro-6-(2-furanyl)pyridine-2-carboxylate]",116 to 117 °C
16,"COC(=O)c1nc(-c2cccs2)c(Cl)c(N)c1Cl [Compound 105, Methyl 4-amino-3,5-dichloro-6-(2-thienyl)pyridine-2-carboxylate]",132 °C
17,"COC(=O)c1nc(-c2cccs2)cc(N)c1Cl [Compound 106, Methyl 4-amino-3-chloro-6-(2-thienyl)pyridine-2-carboxylate]",138 to 139 °C
18,"COC(=O)c1nc(-c2ccnc(OC)c2)cc(N)c1Cl [Compound 107, Methyl 4-amino-3-chloro-6-(6-methoxy-4-pyridinyl)pyridine-2-carboxylate]",185 to 187 °C
19,"COC(=O)c1nc(-c2ccccn2)cc(N)c1Cl [Compound 109, Methyl 4-amino-3-chloro-6-(2-pyridinyl)pyridine-2-carboxylate]",142 to 145 °C
20,"COC(=O)c1nc(-c2ccco2)cc(N)c1Cl [Compound 110, Methyl 4-amino-3-chloro-6-(2-furanyl)pyridine-2-carboxylate]",117 °C
21,"COC(=O)c1nc(-c2nccs2)c(F)c(N)c1Cl [Compound 113, Methyl 4-amino-3-chloro-5-fluoro-6-(2-thiazolyl)pyridine-2-carboxylate]",185 to 187 °C
22,"COC(=O)c1nc(-c2cncnc2)cc(NC(C)=O)c1Cl [Compound 117, Methyl 4-acetamido-3-chloro-6-(5-pyrimidinyl)pyridine-2-carboxylate]",178 to 185 °C
23,"COC(=O)c1nc(-c2ccsc2)cc(N)c1Cl [Compound 122, Methyl 4-amino-3-chloro-6-(3-thienyl)pyridine-2-carboxylate]",129 °C
24,"COC(=O)c1nc(-c2nccs2)cc(N)c1Cl [Compound 123, Methyl 4-amino-3-chloro-6-(2-thiazolyl)pyridine-2-carboxylate]",195 to 197 °C
25,"COC(=O)c1nc(-c2cnn(C)c2)cc(N)c1Cl [Compound 124, Methyl 4-amino-3-chloro-6-(1-methyl-1H-pyrazol-4-yl)pyridine-2-carboxylate]",174 to 176 °C
26,"COC(=O)c1nc(-c2cc3ccccc3s2)cc(N)c1Cl [Compound 125, Methyl 4-amino-3-chloro-6-(2-benzothienyl)pyridine-2-carboxylate]",177 to 178 °C
27,"COC(=O)c1nc(-c2cncnc2)cc(N)c1Cl [Compound 126, Methyl 4-amino-3-chloro-6-(5-pyrimidinyl)pyridine-2-carboxylate]",195 °C
28,"Nc1c(Cl)c(C(=O)O)nc(-c2ccccc2)c1Cl [Compound 133, 4-Amino-3,5-dichloro-6-(phenyl)pyridine-2-carboxylic acid]",135 °C
29,"COc1ccc(-c2nc(C(=O)O)c(Cl)c(N)c2Cl)cc1 [Compound 134, 4-Amino-3,5-dichloro-6-(4-methoxyphenyl)pyridine-2-carboxylic acid]",139 to 140 °C (dec.)

# The remaining lines, values ahead:
row,melting point,Compound
1,251 to 252 °C,"COC(=O)c1nc(-c2ccc(O)nc2)cc(N)c1Cl [Compound 108, Methyl 4-amino-3-chloro-6-(6-hydroxy-3-pyridinyl)pyridine-2-carboxylate]"
2,180 to 181 °C (dec.),"Nc1cc(-c2ccccc2)nc(C(=O)O)c1Cl [Compound 135, 4-Amino-3-chloro-6-(phenyl)pyridine-2-carboxylic acid]"
3,196 to 197 °C,"Nc1cc(-c2ccccc2Cl)nc(C(=O)O)c1Cl [Compound 140, 4-Amino-3-chloro-6-(2-chlorophenyl)pyridine-2-carboxylic acid]"
4,121 to 122 °C,"Nc1cc(-c2ccccc2F)nc(C(=O)O)c1Cl [Compound 142, 4-Amino-3-chloro-6-(2-fluorophenyl)pyridine-2-carboxylic acid]"
5,177 to 178 °C,"CC(=O)c1ccc(-c2cc(N)c(Cl)c(C(=O)O)n2)cc1 [Compound 144, 4-Amino-3-chloro-6-(4-acetylphenyl)pyridine-2-carboxylic acid]"
6,206 °C (dec.),"Nc1cc(-c2ccc(F)cc2F)nc(C(=O)O)c1Cl [Compound 145, 4-Amino-3-chloro-6-(2,4-difluorophenyl)pyridine-2-carboxylic acid]"
7,142 to 143 °C,"CC(C)c1ccc(-c2cc(N)c(Cl)c(C(=O)O)n2)cc1 [Compound 147, 4-Amino-3-chloro-6-(4-isopropylphenyl)pyridine-2-carboxylic acid]"
8,170 to 171 °C,"Nc1cc(-c2ccc(F)cc2)nc(C(=O)O)c1Cl [Compound 156, 4-Amino-3-chloro-6-(4-fluorophenyl)pyridine-2-carboxylic acid]"
9,175 to 176 °C,"Nc1cc(-c2cccc(C(F)(F)F)c2)nc(C(=O)O)c1Cl [Compound 157, 4-Amino-3-chloro-6-[3-(trifluoromethyl)phenyl]pyridine-2-carboxylic acid]"
10,181 to 182 °C,"Nc1cc(-c2ccc(CO)cc2)nc(C(=O)O)c1Cl [Compound 159, 4-Amino-3-chloro-6-(4-hydroxymethylphenyl)pyridine-2-carboxylic acid]"
11,156 to 157 °C,"Nc1cc(-c2ccc(CF)cc2)nc(C(=O)O)c1Cl [Compound 160, 4-Amino-3-chloro-6-[4-(fluoromethyl)phenyl]pyridine-2-carboxylic acid]"
12,188 °C,"Cc1ccc(-c2cc(N)c(Cl)c(C(=O)O)n2)cc1Cl [Compound 164, 4-Amino-3-chloro-6-(3-chloro-4-methylphenyl)pyridine-2-carboxylic acid]"
13,188 to 189 °C,"Cc1ccccc1-c1cc(N)c(Cl)c(C(=O)O)n1 [Compound 165, 4-Amino-3-chloro-6-(2-methylphenyl)pyridine-2-carboxylic acid]"
14,182 to 183 °C,"Nc1cc(-c2cc(F)cc(F)c2)nc(C(=O)O)c1Cl [Compound 167, 4-Amino-3-chloro-6-(3,5-difluorophenyl)pyridine-2-carboxylic acid]"
15,165 to 166 °C,"Nc1cc(-c2c(F)cccc2F)nc(C(=O)O)c1Cl [Compound 169, 4-Amino-3-chloro-6-(2,6-difluorophenyl)pyridine-2-carboxylic acid]"
16,164 to 165 °C,"Nc1cc(-c2ccc(OC(F)(F)F)cc2)nc(C(=O)O)c1Cl [Compound 174, 4-Amino-3-chloro-6-[4-(trifluoromethoxy)phenyl]pyridine-2-carboxylic acid]"
17,213 to 215 °C,"Nc1cc(-c2cc(Cl)ccc2Cl)nc(C(=O)O)c1Cl [Compound 177, 4-Amino-3-chloro-6-(2,5-dichlorophenyl)pyridine-2-carboxylic acid]"
18,178 to 180 °C,"Nc1cc(-c2ccc(Cl)cc2C(F)(F)F)nc(C(=O)O)c1Cl [Compound 182, 4-Amino-3-chloro-6-(4-chloro-2-(trifluoromethyl)phenyl)pyridine-2-carboxylic acid]"
